Consider 15 molecules from patent US6887890B2, “Compounds exhibiting thrombopoietin-like activities” (Chugai Seiyaku Kabushiki Kaisha, priority 2000, dated 2005).

The assay has as its system Mpl-expressing Ba/F3 cell line (human mpl gene). The assay can be described thus: Measurement of thrombopoietin (TPO) activity: viable cell count of Mpl-expressing Ba/F3 cell line (Cell Count Reagent SF, absorbance 450 nm). The note with it: for Concentration: concentration corresponding to the maximum TPO activity value; for TPO activity: maximum TPO activity value, ODt/ODs×100 relative to maximum reaction of human TPO, Mpl-expressing Ba/F3 cells cultured at 37° C. for one day, at the concentration given. Type of assay: cell-based. The protocol: The TPO activities of the compounds of the invention obtained in the aforementioned examples were measured by the procedure described below, for evaluation of their thrombopoietic effects.
Establishment of Mpl-expressing Ba/F3 Cell Line
The human mpl gene was cloned from cDNAs of the human erythroleukemia cell line HEL by PCR, and was incorporated into pCOS1 to construct an expression vector. The expression vector was transfected into Ba/F3 cells by electroporation method, and an Mpl-expressing Ba/F3 clone was established.
Measurement of Thrombopoietin (TPO) Activity
The cytokine-eliminated Mpl-expressing Ba/F3 line was plated in a 96-well plate at 25,000 cells/well. DMSO solutions containing the compounds obtained in each of the examples were then prepared to different specified concentration ranges, and each solution was added to the Mpl-expressing Ba/F3 cell line (final DMSO concentration: ≦0.1%), and the cell were cultured at 37° C. for one day. Human TPO (by R&D Systems or Genzyme) was used as a positive control.
Each of the cultured Mpl-expressing Ba/F3 cell lines was subjected to absorbance measurement at a wavelength of 450 nm (reference wavelength: 620 nm), corresponding to the viable cell count, using Cell Count Reagent SF (by Nacalai Tesque Inc.). The TPO activity of each compound for the Mpl-expressing Ba/F3 cell line was determined based on the following formula. TPO activity (%)=ODt/ODs×100
ODs: Absorbance at maximum reaction of human TPO (wavelength: 450-620 nm).
ODt: Absorbance of test solution (wavelength: 450-620 nm).
Tables 1 and 2 show the maximum TPO activity values and the corresponding concentrations of each compound, as obtained by the test described above.

For `CN(C)CCCC[C@H](NC(=O)Cc1c[nH]c2ccccc12)C(=O)Nc1ccc(C(c2ccc(NC(=O)[C@H](CCCCN(C)C)NC(=O)Cc3c[nH]c4ccccc34)cc2)c2ccc(NC(=O)[C@H](CCCCN(C)C)NC(=O)Cc3c[nH]c4ccccc34)cc2)cc1` [Example 29, tris[4-[N-α-[2-(1H-indol-3-yl)acetyl]-N-εdimethyl-L-lysyl]aminophenyl]methane], the Concentration worked out at 25 µM and the TPO activity was 98.5%.
For the molecule `Cl.NCCCC[C@H](NC(=O)Cc1ccc(O)cc1)C(=O)Nc1ccc(C(c2ccc(NC(=O)[C@H](CCCCN)NC(=O)Cc3ccc(O)cc3)cc2)c2ccc(NC(=O)[C@H](CCCCN)NC(=O)Cc3ccc(O)cc3)cc2)cc1` [Example 19, tris[4-[N-α-[2-(4-hydroxyphenyl)acetyl]-L-lysyl]aminophenyl]methane hydrochloride], the Concentration is 50 µM and the TPO activity came to 19.1%.
On to `NCCC[C@H](NC(=O)Cc1c[nH]c2ccccc12)C(=O)Nc1ccc(C(c2ccc(NC(=O)[C@H](CCCN)NC(=O)Cc3c[nH]c4ccccc34)cc2)c2ccc(NC(=O)[C@H](CCCN)NC(=O)Cc3c[nH]c4ccccc34)cc2)cc1.O=C(O)C(F)(F)F` [Example 134, tris[4-[N-α-[2-(1H-indol-3-yl)acetyl]-L-ornithyl]aminophenyl]methane trifluoroacetate], for which the Concentration was determined as 50 µM and the TPO activity worked out at 67.2%.
For `NCC[C@H](NC(=O)Cc1c[nH]c2ccccc12)C(=O)Nc1ccc(C(c2ccc(NC(=O)[C@H](CCN)NC(=O)Cc3c[nH]c4ccccc34)cc2)c2ccc(NC(=O)[C@H](CCN)NC(=O)Cc3c[nH]c4ccccc34)cc2)cc1.O=C(O)C(F)(F)F` [Example 131, tris[4-[β-aminomethyl-N-[2-(1H-indol-3-yl)acetyl]-L-alanyl]aminophenyl]methane trifluoroacetate], the Concentration was 50 µM and the TPO activity is reported as 88.0%.
Consider `Cl.NCCCC[C@H](NC(=O)Cc1c[nH]c2ccc(O)cc12)C(=O)Nc1ccc(C(c2ccc(NC(=O)[C@H](CCCCN)NC(=O)Cc3c[nH]c4ccc(O)cc34)cc2)c2ccc(NC(=O)[C@H](CCCCN)NC(=O)Cc3c[nH]c4ccc(O)cc34)cc2)cc1` [Example 18, tris[4-[N-α-[2-(5-hydroxy-1H-indol-3-yl)acetyl]-L-lysyl]aminophenyl]methane hydrochloride], for which the Concentration amounted to 50 µM and the TPO activity amounted to 46.5%.
For `NCCCC[C@H](NC(=O)Cc1ccccc1)C(=O)Nc1ccc(C(c2ccc(NC(=O)[C@H](CCCCN)NC(=O)Cc3ccccc3)cc2)c2ccc(NC(=O)[C@H](CCCCN)NC(=O)Cc3ccccc3)cc2)cc1.O=C(O)C(F)(F)F` [Example 199, tris[4-[N-α-(2-phenylacetyl)-L-lysyl]aminophenyl]methane trifluoroacetate], the Concentration is 12.5 µM and the TPO activity is listed as 47.0%.
Regarding `COc1ccc2[nH]c(C)c(CC(=O)N[C@@H](CCN)C(=O)Nc3ccc(C(c4ccc(NC(=O)[C@H](CCN)NC(=O)Cc5c(C)[nH]c6ccc(OC)cc56)cc4)c4ccc(NC(=O)[C@H](CCN)NC(=O)Cc5c(C)[nH]c6ccc(OC)cc56)cc4)cc3)c2c1.O=C(O)C(F)(F)F` [Example 133, tris[4-[β-aminomethyl-N-[2-(5-methoxy-2-methyl-1H-indol-3-yl)acetyl]-L-alanyl]aminophenyl]methane trifluoroacetate], the Concentration amounted to 50 µM and the TPO activity amounted to 89.6%.
In the same order, the values of `COc1ccc2[nH]c(C)c(CC(=O)N[C@@H](CCCCN)C(=O)Nc3ccc(C(c4ccc(NC(=O)[C@H](CCCCN)NC(=O)Cc5c(C)[nH]c6ccc(OC)cc56)cc4)c4ccc(NC(=O)[C@H](CCCCN)NC(=O)Cc5c(C)[nH]c6ccc(OC)cc56)cc4)cc3)c2c1.Cl` [Example 6, tris[4-[N-α-[2-(5-methoxy-2-methyl-1H-indol-3-yl)acetyl]-L-lysyl]aminophenyl]methane hydrochloride] are 25 µM and 17.4%.
Take `Cc1cccc2c(CC(=O)N[C@H](CCCCN)C(=O)Nc3ccc(C(c4ccc(NC(=O)[C@@H](CCCCN)NC(=O)Cc5c[nH]c6c(C)cccc56)cc4)c4ccc(NC(=O)[C@@H](CCCCN)NC(=O)Cc5c[nH]c6c(C)cccc56)cc4)cc3)c[nH]c12.Cl` [Example 155, tris[4-[N-α-[2-(7-methyl-1H-indol-3-yl)acetyl]-D-lysyl]aminophenyl]methane hydrochloride]: the Concentration is 25 µM and the TPO activity came out at 44.3%.
On to `Cc1[nH]c2ccccc2c1CC(=O)N[C@@H](CCCCN)C(=O)Nc1ccc(C(c2ccc(NC(=O)[C@H](CCCCN)NC(=O)Cc3c(C)[nH]c4ccccc34)cc2)c2ccc(NC(=O)[C@H](CCCCN)NC(=O)Cc3c(C)[nH]c4ccccc34)cc2)cc1.Cl` [Example 7, tris[4-[N-α-[2-(2-methyl-1H-indol-3-yl)acetyl]-L-lysyl]aminophenyl]methane hydrochloride], for which the Concentration is 21 µM and the TPO activity is 24.7%.
As to `Cl.NCCCC[C@H](NC(=O)Cc1c[nH]c2ccccc12)C(=O)Nc1ccc(C(c2ccc(NC(=O)[C@H](CCCCN)NC(=O)Cc3c[nH]c4ccccc34)cc2)c2ccc(NC(=O)[C@H](CCCCN)NC(=O)Cc3c[nH]c4ccccc34)cc2)cc1` [Example 1, tris[4-[N-α-[2-(1H-indol-3-yl)acetyl]-L-lysyl]aminophenyl]methane hydrochloride], the Concentration worked out at 25 µM and the TPO activity turned out to be 37.6%.
In the same order, the values of `Cl.N=C(N)NCCC[C@H](NC(=O)Cc1ccsc1)C(=O)Nc1ccc(C(c2ccc(NC(=O)[C@H](CCCNC(=N)N)NC(=O)Cc3ccsc3)cc2)c2ccc(NC(=O)[C@H](CCCNC(=N)N)NC(=O)Cc3ccsc3)cc2)cc1` (stereo partly drawn) [Example 38, tris[4-[N-α-[2-(thiophen-3-yl)acetyl]-L-arginyl]aminophenyl]methane hydrochloride] are 25 µM and 124%.
`CN(C)CCCC[C@H](NC(=O)Cc1ccsc1)C(=O)Nc1ccc(C(c2ccc(NC(=O)[C@H](CCCCN(C)C)NC(=O)Cc3ccsc3)cc2)c2ccc(NC(=O)[C@H](CCCCN(C)C)NC(=O)Cc3ccsc3)cc2)cc1` [Example 32, tris[4-[N-α-[2-(thiophen-3-yl)acetyl]-N-ε-dimethyl-L-lysyl]aminophenyl]methane]: the Concentration worked out at 25 µM and the TPO activity is listed as 87.1%.
Regarding `NCCCC[C@@H](NC(=O)Cc1ccc(O)c(O)c1)C(=O)Nc1ccc(C(c2ccc(NC(=O)[C@@H](CCCCN)NC(=O)Cc3ccc(O)c(O)c3)cc2)c2ccc(NC(=O)[C@@H](CCCCN)NC(=O)Cc3ccc(O)c(O)c3)cc2)cc1.O=C(O)C(F)(F)F` [Example 188, tris[4-[N-α-[2-(3,4-dihydroxyphenyl)acetyl]-D-lysyl]aminophenyl]methane trifluoroacetate], the Concentration was 100 µM and the TPO activity was 10.1%.
As for `CCc1[nH]c2ccccc2c1CC(=O)N[C@H](CCCCN)C(=O)Nc1ccc(C(c2ccc(NC(=O)[C@@H](CCCCN)NC(=O)Cc3c(CC)[nH]c4ccccc34)cc2)c2ccc(NC(=O)[C@@H](CCCCN)NC(=O)Cc3c(CC)[nH]c4ccccc34)cc2)cc1.Cl` [Example 148, tris[4-[N-α-[2-(2-ethyl-1H-indol-3-yl)acetyl]-D-lysyl]aminophenyl]methane hydrochloride], the Concentration is 25 µM and the TPO activity is listed as 73.6%.
